Measured values reported in paper PMC10873635 (Proceedings of the National Academy of Sciences of the …, 2024).

Experiments:
His6-Scap(L1)-FLAG = biological target: T1, His6-Scap(L1)-FLAG (Cricetulus griseus, UniProt P97260); experiment: competition with [3H]cholesterol; format: binding; conditions: 150 nM [3H]cholesterol, 0.004% NP-40, 0.002% FC-13, 4 °C, 4 h
T1 sequence (P97260 46-269): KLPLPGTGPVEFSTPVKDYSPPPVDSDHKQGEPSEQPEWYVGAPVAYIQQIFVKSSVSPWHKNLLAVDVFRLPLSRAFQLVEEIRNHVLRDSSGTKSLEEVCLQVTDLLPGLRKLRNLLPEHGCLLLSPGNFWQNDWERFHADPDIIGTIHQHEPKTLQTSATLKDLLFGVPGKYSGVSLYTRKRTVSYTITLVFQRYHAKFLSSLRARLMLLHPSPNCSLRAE

His6-ALO (Anthrolysin O) = His6-ALO (Anthrolysin O) (Bacillus anthracis, UniProt A0A6L7HHW7); format: biochemical
His6-ALO (Anthrolysin O), sequence (A0A6L7HHW7 35-512 limits assumed): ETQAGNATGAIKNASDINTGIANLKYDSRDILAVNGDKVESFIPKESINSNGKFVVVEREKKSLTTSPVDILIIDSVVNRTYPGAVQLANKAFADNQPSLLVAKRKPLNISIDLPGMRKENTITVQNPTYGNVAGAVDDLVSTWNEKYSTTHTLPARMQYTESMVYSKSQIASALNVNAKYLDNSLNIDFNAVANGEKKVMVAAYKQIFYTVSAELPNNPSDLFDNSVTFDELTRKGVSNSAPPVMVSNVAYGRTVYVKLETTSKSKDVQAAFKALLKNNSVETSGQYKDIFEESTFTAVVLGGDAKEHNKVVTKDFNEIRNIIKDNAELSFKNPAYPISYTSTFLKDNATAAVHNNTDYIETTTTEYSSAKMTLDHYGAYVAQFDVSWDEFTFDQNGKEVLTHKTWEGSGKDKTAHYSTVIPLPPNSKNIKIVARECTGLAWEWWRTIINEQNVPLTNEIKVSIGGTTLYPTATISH

`C[C@H](CCCC(C)(C)F)[C@H]1CC[C@H]2[C@@H]3CC=C4C[C@@H](O)CC[C@]4(C)[C@H]3CC[C@]12C` [25-fluorocholesterol] was tested, and the “competition with [3H]cholesterol” value (His6-Scap(L1)-FLAG; competitive) was “both Scap and ALO bind desmosterol, 25-fluorocholesterol, and β-sitosterol” and the “inhibition of hemolysis of rabbit erythrocytes” value (shortened to “inhibition”) (His6-ALO (Anthrolysin O)) was “both Scap and ALO bind desmosterol, 25-fluorocholesterol, and β-sitosterol”.

`CCOC(=O)c1ccc(NC(=O)Nc2ccc(-c3noc(C4CCC4)n3)cc2)cc1` [UT-59, ethyl 4-({[4-(5-cyclobutyl-1,2,4-oxadiazol-3-yl)anilino]carbonyl}amino) benzoate] was tested, and the “competition with [3H]cholesterol” value (His6-Scap(L1)-FLAG; competitive, cholesterol site) was “UT-59 competed with [^3H]cholesterol for binding to His6-Scap(L1)-FLAG to a similar degree as unlabeled cholesterol”.

`CC(C)CCC[C@@H](C)[C@H]1CC[C@H]2[C@@H]3CC=C4C[C@@H](O)CC[C@]4(C)[C@H]3CC[C@]12C` [cholesterol] was tested, and the “competition with [3H]cholesterol” value (His6-Scap(L1)-FLAG; also labelled compound) was “As expected, both Scap and ALO bind cholesterol” and the “inhibition” value (His6-ALO (Anthrolysin O)) was “the sterol occupied the binding pocket, preventing ALO from binding to the membrane and inhibiting hemolysis”.

In the case of `CC(C)=CCC[C@@H](C)[C@H]1CC[C@H]2[C@@H]3CC=C4C[C@@H](O)CC[C@]4(C)[C@H]3CC[C@]12C` [desmosterol], the “competition with [3H]cholesterol” value (His6-Scap(L1)-FLAG; competitive) was “both Scap and ALO bind desmosterol, 25-fluorocholesterol, and β-sitosterol” and the “inhibition” value (His6-ALO (Anthrolysin O)) was “both Scap and ALO bind desmosterol, 25-fluorocholesterol, and β-sitosterol”.

In the case of `CC(C)CCC[C@@H](C)[C@H]1CC[C@H]2[C@@H]3CC[C@H]4C[C@@H](O)CC[C@]4(C)[C@H]3CC[C@]12C` [dihydrocholesterol], the “competition with [3H]cholesterol” value (His6-Scap(L1)-FLAG; competitive) was “as well as dihydrocholesterol, where the double bond in the steroid nucleus is reduced”.

For `CC[C@H](CC[C@@H](C)[C@H]1CC[C@H]2[C@@H]3CC=C4C[C@@H](O)CC[C@]4(C)[C@H]3CC[C@]12C)C(C)C` [β-sitosterol], the “competition with [3H]cholesterol” value (His6-Scap(L1)-FLAG; competitive) was “both Scap and ALO bind desmosterol, 25-fluorocholesterol, and β-sitosterol” and the “inhibition” value (His6-ALO (Anthrolysin O)) was “both Scap and ALO bind desmosterol, 25-fluorocholesterol, and β-sitosterol”.
